One block for each molecule: values may come before it.
Experiments:
BCR-ABL = BCR-ABL (Homo sapiens, UniProt P00519); assay: Western-blot half-degradation concentration (DC50) / degradation of BCR-ABL in K562 cells; details: read-out: DC50 (nM)/K562 cell line, BCR-ABL protein degradation, 24 hours, Western-blot
[1] = test system: K562 cells (BCR-ABL positive); assay: Half inhibitory concentration (IC50) on tumor cells, CCK-8, K562; details: Homo sapiens, K562, 48 h, read-out: IC50 (nM)/K562 cell line
MV-4-11 cells = assay: Half inhibitory concentration (IC50) on BET-expressing tumor cells, CCK-8, MV-4-11; details: Homo sapiens, MV4-11, read-out: IC50 (nM)/MV-4-11 cell line, MV-4-11 cells, 48/72 h, CCK-8
MM1S cells = assay: Half inhibitory concentration (IC50) on BET-expressing tumor cells, CCK-8, MM1S; assay type: cell-based; details: Homo sapiens, MM1.S, 48/72 h, read-out: IC50 (nM)/MM1S cell line
Protocol: BET-expressing cells MV-4-11 cells (human B granulocytic leukemia cells), MDA-MB-231 cells (human breast cancer cells), MDA-MB-468 cells (human breast cancer cells), MDA-MB-453 Cells (human breast cancer cells), MM1S cells (myeloma (immunoglobulin A lambda), B lymphoblasts) and SR cells (human large cell immunoblast lymphoma) were purchased from the American Type Culture Collection (ATCC).
The cells used in this present disclosure were cultured in a 37° C. incubator containing 5% CO2. The complete cell culture medium was RPMI 1640/IMDM/DMEM medium with 10% fetal bovine serum, and the final concentrations of penicillin and streptomycin were 100 U/mL, respectively. All cells were tested negative for mycoplasma with mycoplasma detection kit before the experiment.
Determination of the Half Inhibitory Concentration (IC50) of PROTAD Compounds on Tumor Cells
MV-411 cells, MM1S cells and SR cells were seeded in 100 μL IMDM/RPMI1640/DMEM complete medium at a density of 15000/10000 cells/well; MDA-MB-231 cells, MDA-MB-468 cells, and MDA-MB453 cells were seeded in 100 μL IMDM/RPMI1640/DMEM complete medium at a density of 3000/5000 cells/well, respectively. 100 μL of the inoculated cells were treated with 0.5 μL diluted PROTAD compounds of the present disclosure to be tested at 10 successively decreasing concentrations (starting at the highest concentration of 10 μM; 5-fold serial dilutions). After the cells were treated with the tested drugs 48/72 h, the cell viability was determined according to the CCK-8 reagent manual. The negative control was DMSO, and the positive control was a commercial inhibitor. After CCK-8 treatment for 2 h, the value of O.D.450 was measured using a microplate reader.

ALK protein = ALK protein (Homo sapiens, UniProt Q9UM73); assay: Western-blot half degradation concentration (DC50) of ALK protein in SR cells; assay type: cell-based; details: 24 h drug treatment, read-out: DC50 (nM)/ SR cell line
ALK protein, sequence (Q9UM73 with tags, fused parts or gaps): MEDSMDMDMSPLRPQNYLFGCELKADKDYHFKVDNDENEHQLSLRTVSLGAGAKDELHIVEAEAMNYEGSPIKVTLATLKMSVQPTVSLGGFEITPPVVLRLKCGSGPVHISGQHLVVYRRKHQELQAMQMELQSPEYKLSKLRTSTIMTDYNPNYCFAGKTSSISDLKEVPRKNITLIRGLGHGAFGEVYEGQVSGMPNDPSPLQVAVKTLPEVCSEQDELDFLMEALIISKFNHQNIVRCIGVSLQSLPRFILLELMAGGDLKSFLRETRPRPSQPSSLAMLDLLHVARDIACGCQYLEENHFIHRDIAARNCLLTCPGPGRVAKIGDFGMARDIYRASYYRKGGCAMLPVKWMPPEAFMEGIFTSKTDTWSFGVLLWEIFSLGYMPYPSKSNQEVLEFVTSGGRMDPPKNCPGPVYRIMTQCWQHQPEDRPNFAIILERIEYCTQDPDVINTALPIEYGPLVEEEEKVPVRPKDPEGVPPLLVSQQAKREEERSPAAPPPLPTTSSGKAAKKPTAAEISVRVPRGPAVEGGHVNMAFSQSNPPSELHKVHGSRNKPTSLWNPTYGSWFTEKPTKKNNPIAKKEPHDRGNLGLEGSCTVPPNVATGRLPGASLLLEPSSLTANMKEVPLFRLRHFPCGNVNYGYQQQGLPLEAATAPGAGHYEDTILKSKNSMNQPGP
Protocol: ALK-positive SR cells (human large cell immunoblastic lymphoma) were purchased from the American Type Culture Collection (ATCC); H3122 cells (human non-small cell lung cancer) were from the Shanghai University of Science and Technology Lin Haifan's research group.
The cells used in this present disclosure were cultured in a 37° C. incubator containing 5% CO2.
DC50 (drug concentration corresponding to protein degradation to 50%) calculation: according to the gray value of the corresponding Western blotting band after drug treatment, fitting the relationship curve between drug concentration and gray value to calculate the drug concentration range corresponding to half of the gray value.

SR cells = assay: Half inhibitory concentration (IC50) on ALK-positive SR cell proliferation (CCK-8); assay type: cell-based; details: Homo sapiens; SR cells, 72 h drug treatment, CCK-8; read-out: IC50 (nM)/ SR cell line
In short: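 SR cells seeded at 10,000 cells/well in RPMI1640 and treated with PROTAD compounds at 10 concentrations (top 10 μM, 5-fold dilutions) for 72 h at 37° C, 5% CO2. Viability read by CCK-8 (2 h) at OD450; DMSO as negative control.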

BCR-ABL, sequence (P00519 with tags, fused parts or gaps): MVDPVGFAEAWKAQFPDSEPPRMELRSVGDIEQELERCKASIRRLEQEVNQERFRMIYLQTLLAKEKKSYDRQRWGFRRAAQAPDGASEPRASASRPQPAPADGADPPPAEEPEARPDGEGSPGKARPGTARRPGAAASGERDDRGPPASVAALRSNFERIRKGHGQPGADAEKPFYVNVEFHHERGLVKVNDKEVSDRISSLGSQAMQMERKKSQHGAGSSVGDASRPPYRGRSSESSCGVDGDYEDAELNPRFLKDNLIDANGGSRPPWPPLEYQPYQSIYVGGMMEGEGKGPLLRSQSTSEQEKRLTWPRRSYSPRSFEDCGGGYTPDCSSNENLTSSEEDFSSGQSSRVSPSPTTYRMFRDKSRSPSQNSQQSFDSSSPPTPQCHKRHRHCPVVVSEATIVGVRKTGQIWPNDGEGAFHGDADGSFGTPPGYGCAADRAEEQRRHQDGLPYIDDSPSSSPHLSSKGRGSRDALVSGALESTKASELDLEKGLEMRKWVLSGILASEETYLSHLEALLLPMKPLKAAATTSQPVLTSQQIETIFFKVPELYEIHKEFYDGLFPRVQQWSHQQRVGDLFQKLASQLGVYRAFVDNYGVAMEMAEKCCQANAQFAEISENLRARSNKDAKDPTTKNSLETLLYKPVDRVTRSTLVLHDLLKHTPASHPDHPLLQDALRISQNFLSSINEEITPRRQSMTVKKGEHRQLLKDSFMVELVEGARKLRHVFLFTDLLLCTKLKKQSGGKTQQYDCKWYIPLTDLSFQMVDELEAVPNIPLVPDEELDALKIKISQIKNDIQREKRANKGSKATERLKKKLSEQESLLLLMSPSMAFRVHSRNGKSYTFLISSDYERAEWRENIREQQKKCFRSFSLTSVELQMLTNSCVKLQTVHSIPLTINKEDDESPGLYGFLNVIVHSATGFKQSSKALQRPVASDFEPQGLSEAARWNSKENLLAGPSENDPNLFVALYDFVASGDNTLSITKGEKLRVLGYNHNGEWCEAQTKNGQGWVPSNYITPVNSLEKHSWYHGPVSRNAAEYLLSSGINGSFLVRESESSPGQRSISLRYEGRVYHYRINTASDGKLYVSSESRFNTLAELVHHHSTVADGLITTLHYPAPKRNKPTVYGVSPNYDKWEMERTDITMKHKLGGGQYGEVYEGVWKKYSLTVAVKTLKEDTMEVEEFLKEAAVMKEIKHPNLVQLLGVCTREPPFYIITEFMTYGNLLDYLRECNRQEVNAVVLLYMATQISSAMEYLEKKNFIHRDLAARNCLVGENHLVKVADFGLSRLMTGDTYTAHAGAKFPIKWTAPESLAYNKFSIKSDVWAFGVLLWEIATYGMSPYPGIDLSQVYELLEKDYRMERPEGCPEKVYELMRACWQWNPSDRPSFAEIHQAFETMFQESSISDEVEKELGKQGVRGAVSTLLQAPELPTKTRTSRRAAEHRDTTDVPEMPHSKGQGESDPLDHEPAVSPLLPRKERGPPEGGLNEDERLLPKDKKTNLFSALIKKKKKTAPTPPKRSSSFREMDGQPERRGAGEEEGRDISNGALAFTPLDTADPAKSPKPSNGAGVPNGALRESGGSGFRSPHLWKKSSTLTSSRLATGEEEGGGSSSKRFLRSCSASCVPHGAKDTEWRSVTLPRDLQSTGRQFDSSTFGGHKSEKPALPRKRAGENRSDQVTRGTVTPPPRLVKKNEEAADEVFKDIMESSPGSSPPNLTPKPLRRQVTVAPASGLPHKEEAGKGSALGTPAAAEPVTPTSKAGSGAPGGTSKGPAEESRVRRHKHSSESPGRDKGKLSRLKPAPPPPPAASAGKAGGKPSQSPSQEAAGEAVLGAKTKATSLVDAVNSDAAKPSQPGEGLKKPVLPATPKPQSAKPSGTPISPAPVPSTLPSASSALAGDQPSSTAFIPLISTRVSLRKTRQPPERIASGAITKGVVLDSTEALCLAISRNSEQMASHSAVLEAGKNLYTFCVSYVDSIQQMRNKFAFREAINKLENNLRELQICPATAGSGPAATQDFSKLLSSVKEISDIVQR

DC50 (BCR-ABL): 20.7 nM | IC50 [1]: 15 nM
SMILES: Cc1nc(Nc2ncc(C(=O)Nc3c(C)cccc3Cl)s2)cc(N2CCN(C(=O)CCCSc3cccc4c3C(=O)N(C3CCC(=O)NC3=O)C4=O)CC2)n1 (stereo not drawn) [SIAIS151153, N-(2-chloro-6-methylphenyl)-2-((6-(4-(4-((2-(2,6-dioxopiperidin-3-yl)-1,3-dioxoisoindolin-4-yl)thio)butanoyl)piperazin-1-yl)-2-methylpyrimidin-4-yl)amino)thiazole-5-carboxamide]

DC50 (BCR-ABL): < 1 nM | IC50 [1]: 0.51 nM
SMILES: Cc1nc(Nc2ncc(C(=O)Nc3c(C)cccc3Cl)s2)cc(N2CCN(CCSc3cccc4c3CN(C3CCC(=O)NC3=O)C4=O)CC2)n1 (stereo not drawn) [SIAIS171166, N-(2-chloro-6-methylphenyl)-2-((6-(4-(2-((2-(2,6-dioxopiperidin-3-yl)-1-oxoisoindolin-4-yl)thio)ethyl)piperazin-1-yl)-2-methylpyrimidin-4-yl)amino)thiazole-5-carboxamide]

IC50 (MV-4-11 cells): 4.9 ± 0.8 nM | IC50 (MM1S cells): 42.5 nM
SMILES: Cc1sc2c(c1C)C(c1ccc(Cl)cc1)=N[C@@H](CC(=O)NCCCCNC(=O)CSc1cccc3c1CN(C1CCC(=O)NC1=O)C3=O)c1nnc(C)n1-2 (stereo partly drawn) [SIAIS213094, 2-((S)-4-(4-chlorophenyl)-2,3,9-trimethyl-6H-thieno[3,2-f][1,2,4]triazolo[4,3-a][1,4]diazepin-6-yl)-N-(4-(2-((2-(2,6-dioxopiperidin-3-yl)-1-oxoisoindolin-4-yl)thio)acetamido)butyl)acetamide]

DC50 (BCR-ABL): < 3 nM | IC50 [1]: 0.83 nM
SMILES: Cc1nc(Nc2ncc(C(=O)Nc3c(C)cccc3Cl)s2)cc(N2CCN(CCCSc3cccc4c3C(=O)N(C3CCC(=O)NC3=O)C4=O)CC2)n1 (stereo not drawn) [SIAIS172106, N-(2-chloro-6-methylphenyl)-2-((6-(4-(3-((2-(2,6-dioxopiperidin-3-yl)-1,3-dioxoisoindolin-4-yl)thio)propyl)piperazin-1-yl)-2-methylpyrimidin-4-yl)amino)thiazole-5-carboxamide]

DC50 (ALK protein): 0.1 to 10 nM
SMILES: COc1cc(N2CCC(N3CCN(C(=O)CCCCCCSc4cccc5c4CN(C4CCC(=O)NC4=O)C5=O)CC3)CC2)ccc1Nc1ncc(Cl)c(Nc2ccccc2P(C)(C)=O)n1 (stereo not drawn) [SIAIS219072, 3-(4-((7-(4-(1-(4-((5-chloro-4-((2-(dimethylphosphoryl)phenyl)amino)pyrimidin-2-yl)amino)-3-methoxyphenyl)piperidin-4-yl)piperazin-1-yl)-7-oxoheptyl)thio)-1-oxoisoindolin-2-yl)piperidine-2,6-dione]
IC50 (SR cells): 0.8 ± 0.5 nM

IC50 (MV-4-11 cells): 0.5 ± 0.1 nM | IC50 (MM1S cells): 3.03 nM
SMILES: Cc1sc2c(c1C)C(c1ccc(Cl)cc1)=N[C@@H](CC(=O)NCCOCCOCCSc1cccc3c1CN(C1CCC(=O)NC1=O)C3=O)c1nnc(C)n1-2 (stereo partly drawn) [SIAIS213072, 2-((S)-4-(4-chlorophenyl)-2,3,9-trimethyl-6H-thieno[3,2-f][1,2,4]triazolo[4,3-a][1,4]diazepin-6-yl)-N-(2-(2-(2-((2-(2,6-dioxopiperidin-3-yl)-1-oxoisoindolin-4-yl)thio)ethoxy)ethoxy)ethyl)acetamide]

DC50 (BCR-ABL): 2 nM | IC50 [1]: 5.74 nM
SMILES: Cc1nc(Nc2ncc(C(=O)Nc3c(C)cccc3Cl)s2)cc(N2CCN(C(=O)CCCCSc3cccc4c3C(=O)N(C3CCC(=O)NC3=O)C4=O)CC2)n1 (stereo not drawn) [SIAIS151154, N-(2-chloro-6-methylphenyl)-2-((6-(4-(5-((2-(2,6-dioxopiperidin-3-yl)-1,3-dioxoisoindolin-4-yl)thio)pentanoyl)piperazin-1-yl)-2-methylpyrimidin-4-yl)amino)thiazole-5-carboxamide]

IC50 (MV-4-11 cells): 2 ± 0.4 nM | IC50 (MM1S cells): 12.8 nM
SMILES: Cc1sc2c(c1C)C(c1ccc(Cl)cc1)=N[C@@H](CC(=O)NCCOCCOCCSc1cccc3c1C(=O)N(C1CCC(=O)NC1=O)C3=O)c1nnc(C)n1-2 (stereo partly drawn) [SIAIS213070, 2-((S)-4-(4-chlorophenyl)-2,3,9-trimethyl-6H-thieno[3,2-f][1,2,4]triazolo[4,3-a][1,4]diazepin-6-yl)-N-(2-(2-(2-((2-(2,6-dioxopiperidin-3-yl)-1,3-dioxoisoindolin-4-yl)thio)ethoxy)ethoxy)ethyl)acetamide]

DC50 (BCR-ABL): < 1 nM | IC50 [1]: 11.1 nM
SMILES: Cc1nc(Nc2ncc(C(=O)Nc3c(C)cccc3Cl)s2)cc(N2CCN(C(=O)CCSc3cccc4c3C(=O)N(C3CCC(=O)NC3=O)C4=O)CC2)n1 (stereo not drawn) [SIAIS151152, N-(2-chloro-6-methylphenyl)-2-((6-(4-(3-((2-(2,6-dioxopiperidin-3-yl)-1,3-dioxoisoindolin-4-yl)thio)propanoyl)piperazin-1-yl)-2-methylpyrimidin-4-yl)amino)thiazole-5-carboxamide]

IC50 (MV-4-11 cells): 6.5 ± 2.5 nM | IC50 (MM1S cells): 96.1 nM
SMILES: Cc1sc2c(c1C)C(c1ccc(Cl)cc1)=N[C@@H](CC(=O)NCCCCNC(=O)CSc1cccc3c1C(=O)N(C1CCC(=O)NC1=O)C3=O)c1nnc(C)n1-2 (stereo partly drawn) [SIAIS213075, 2-((S)-4-(4-chlorophenyl)-2,3,9-trimethyl-6H-thieno[3,2-f][1,2,4]triazolo[4,3-a][1,4]diazepin-6-yl)-N-(4-(2-((2-(2,6-dioxopiperidin-3-yl)-1,3-dioxoisoindolin-4-yl)thio)acetamido)butyl)acetamide]

DC50 (BCR-ABL): 0.8 nM | IC50 [1]: 8.66 nM
SMILES: Cc1nc(Nc2ncc(C(=O)Nc3c(C)cccc3Cl)s2)cc(N2CCN(C(=O)CCCCCSc3cccc4c3C(=O)N(C3CCC(=O)NC3=O)C4=O)CC2)n1 (stereo not drawn) [SIAIS151155, N-(2-chloro-6-methylphenyl)-2-((6-(4-(6-((2-(2,6-dioxopiperidin-3-yl)-1,3-dioxoisoindolin-4-yl)thio)hexanoyl)piperazin-1-yl)-2-methylpyrimidin-4-yl)amino)thiazole-5-carboxamide]

DC50 (ALK protein): 0.1 to 10 nM
SMILES: COc1cc(N2CCC(N3CCN(C(=O)CCCSc4cccc5c4CN(C4CCC(=O)NC4=O)C5=O)CC3)CC2)ccc1Nc1ncc(Cl)c(Nc2ccccc2P(C)(C)=O)n1 (stereo not drawn) [SIAIS219069, 3-(4-((4-(4-(1-(4-((5-chloro-4-((2-(dimethylphosphoryl)phenyl)amino)pyrimidin-2-yl)amino)-3-methoxyphenyl)piperidin-4-yl)piperazin-1-yl)-4-oxobutyl)thio)-1-oxoisoindolin-2-yl)piperidine-2,6-dione]
IC50 (SR cells): 0.7 ± 0.3 nM

DC50 (BCR-ABL): 2.9 nM | IC50 [1]: 6.63 nM
SMILES: Cc1nc(Nc2ncc(C(=O)Nc3c(C)cccc3Cl)s2)cc(N2CCN(C(=O)CCCCCCSc3cccc4c3C(=O)N(C3CCC(=O)NC3=O)C4=O)CC2)n1 (stereo not drawn) [SIAIS151156, N-(2-chloro-6-methylphenyl)-2-((6-(4-(7-((2-(2,6-dioxopiperidin-3-yl)-1,3-dioxoisoindolin-4-yl)thio)heptanoyl)piperazin-1-yl)-2-methylpyrimidin-4-yl)amino)thiazole-5-carboxamide]

DC50 (ALK protein): 0.1 to 10 nM
SMILES: COc1cc(N2CCC(N3CCN(C(=O)CSc4cccc5c4CN(C4CCC(=O)NC4=O)C5=O)CC3)CC2)ccc1Nc1ncc(Cl)c(Nc2ccccc2P(C)(C)=O)n1 (stereo not drawn) [SIAIS219067, 3-(4-((2-(4-(1-(4-((5-chloro-4-((2-(dimethylphosphoryl)phenyl)amino)pyrimidin-2-yl)amino)-3-methoxyphenyl)piperidin-4-yl)piperazin-1-yl)-2-oxoethyl)thio)-1-oxoisoindolin-2-yl)piperidine-2,6-dione]
IC50 (SR cells): 2.4 ± 1.4 nM

DC50 (ALK protein): 0.1 to 10 nM
SMILES: COc1cc(N2CCC(N3CCN(C(=O)CCCCSc4cccc5c4CN(C4CCC(=O)NC4=O)C5=O)CC3)CC2)ccc1Nc1ncc(Cl)c(Nc2ccccc2P(C)(C)=O)n1 (stereo not drawn) [SIAIS219070, 3-(4-((5-(4-(1-(4-((5-chloro-4-((2-(dimethylphosphoryl)phenyl)amino)pyrimidin-2-yl)amino)-3-methoxyphenyl)piperidin-4-yl)piperazin-1-yl)-5-oxopentyl)thio)-1-oxoisoindolin-2-yl)piperidine-2,6-dione]
IC50 (SR cells): 0.5 ± 0.3 nM

— patent US12226424B2, “Target protein degradation compounds, their anti-tumor use, their intermediates and use of intermediates” (ShanghaiTech University, priority 2018, dated 2025)
